Test results as given in patent US20120077802A1 (SUNOVION PHARMACEUTICALS INC., priority 2009, published 2012).

What follows are compounds tested against T1, human histamine H3 receptor (Homo sapiens, UniProt Q9Y5N1) (assay: H3 GTPγS assay (SPA method), histamine H3 in vitro assay). Settings: GTPγ[35S] SPA, membranes of cells expressing human H3 receptor; in one embodiment HCl salts tested; read-out: Potency (functional potency as indicated by IC50).
T1 construct: host or cells: cells expressing the human H3 receptor
Assay type: biochemical
Procedure: H3 GTPγS assay (SPA method) was performed at EuroScreen (Belgium, ES-392-C) using conventional methods. Briefly, cells expressing the human histamine H3 receptor were homogenized in 15 mM Tris-HCl pH 7.5, 2 mM MgCl2, 0.3 mM EDTA, and 1 mM EGTA. Membranes were washed twice in the above tris buffer, collected by centrifugation (40,000×g, 25 min), and re-suspended in 75 mM Tris-HCl pH 7.5, 12.5 mM MgCl2, 0.3 mM EDTA, 1 mM EGTA, and 250 mM sucrose. Membranes were frozen in liquid nitrogen until use. On the day of the assay, membranes were thawed and diluted in assay buffer (20 mM HEPES pH 7.4, 100 mM NaCl, 10 μg/ml saponin, 1 mM MgCl2) to give 500 μg/ml and mixed (v/v) with GDP in assay buffer for a final GDP concentration of 10 μM and incubated on ice for at least 15 min. PVT-WGA beads (Amersham, RPNQ001) were diluted in assay buffer at 50 mg/mL and mixed with GTPγ[^35S] (Amersham, SJ1308) diluted in assay buffer to give ˜25,000 dpm/10 μL, and mixed vol/vol just before the start of the reaction. The reaction was started by adding 50 μL of test compound, 20 μL of the membranes:GDP mix, 10 μL of buffer, and 20 μL of the GTPγ[^35S]:beads mix in a 96 well plate Optiplate™ (PerkinElmer, 6005299) covered with topseal (TopCount™, PerkinElmer), mixed with an orbital shaker for 2 min, incubated for 1 hour at room temperature, centrifuged for 10 min at 2000 rpm, incubated for 1 h at room temperature, and counted for 1 min in a TopCount™ reader (PerkinElmer). Dose response curves and IC50 values (concentration to inhibit the reaction by 50%) were calculated by nonlinear regression using XLfit software (IDBS).
For antagonists testing, 10 μL of a reference agonist (R-γ-Me-Histamine) instead of 10 μL buffer was added at a concentration corresponding to the EC80 (30 nM). Control ligands were R-γ-Me-Histamine (Tocris, 0569), Imetit (Sigma, I-135), Thioperamide (Tocris, 0644), and Clobenpropit (Tocris, 0754) diluted in assay buffer.
The compounds provided herein were tested in the histamine H3 in vitro assay. In one embodiment, the respective HCl salts of the compounds provided herein were prepared using standard chemical procedures and tested in the histamine H3 in vitro assay.

T1 sequence (Q9Y5N1 whole entry): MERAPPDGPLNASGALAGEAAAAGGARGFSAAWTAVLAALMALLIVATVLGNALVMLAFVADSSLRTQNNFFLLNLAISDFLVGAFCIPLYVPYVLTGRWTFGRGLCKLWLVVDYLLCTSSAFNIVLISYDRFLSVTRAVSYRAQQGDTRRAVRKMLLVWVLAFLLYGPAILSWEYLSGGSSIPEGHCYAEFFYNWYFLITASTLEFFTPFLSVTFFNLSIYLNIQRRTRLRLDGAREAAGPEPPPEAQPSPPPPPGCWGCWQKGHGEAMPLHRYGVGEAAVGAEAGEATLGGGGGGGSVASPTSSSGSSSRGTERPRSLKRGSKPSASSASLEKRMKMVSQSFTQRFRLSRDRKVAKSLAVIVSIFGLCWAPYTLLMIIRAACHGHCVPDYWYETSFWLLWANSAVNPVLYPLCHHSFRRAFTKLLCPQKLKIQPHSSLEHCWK

Which IC50 does the source give for “5-Bromo-2′,3′,4′,6′,7′,9′,10′,10a′-octahydro-1′H,3H-spiro[benzofuran-2,8′-pyrido[1,2-a]azepine] and 5-bromo-2′,3′,4′,6′,7′,8′,10′,10a′-octahydro-1′H,3H-spiro[benzofuran-2,9′-pyrido[1,2-a]azepine] [82/82a]” here?
Its IC50 is ≤ 1000 nM.

With c1cc2c(cc1-c1ccc3nncn3c1)CC1(CCN(C3CCC3)CC1)O2 [Compound 63] as the compound, how does the IC50 read?
The IC50 was ≤ 10 nM.

For CN1CCN(c2ccc3c(c2)OC2(CCN(C4CCC4)CC2)C3)CC1 [Compound 38, 1′-Cyclobutyl-6-(4-methylpiperazin-1-yl)-3H-spiro[benzofuran-2,4′-piperidine]], which IC50 is on record?
Its IC50 is ≤ 100 nM.

For “5-(Imidazo[1,2-a]pyridin-6-yl)-1′,2′,3′,5′,6′,7′,9′,9a′-octahydro-3H-spiro[benzofuran-2,8′-pyrrolo[1,2-a]azepine] and 5-(imidazo[1,2-a]pyridin-6-yl)-1′,2′,3′,5′,6′,8′,9′,9a′-octahydro-3H-spiro[benzofuran-2,7′-pyrrolo[1,2-a]azepine] [96/96a]”, which IC50 is on record?
Its IC50 is ≤ 10 nM.

c1cc2ncc(-c3ccc4c(c3)CC3(CCN(C5CCC5)CC3)O4)cc2o1 [Compound 60, 1′-Cyclobutyl-5-(furo[3,2-b]pyridin-6-yl)-3H-spiro[benzofuran-2,4′-piperidine]] was tested. Which IC50 did it give?
Its IC50 is ≤ 10 nM.

Which IC50 does the source give for c1cnc(-c2ccc3c(c2)OC2(CCN(C4CCC4)CC2)C3)cn1 [Compound 37, 1′-Cyclobutyl-6-(pyrazin-2-yl)-3H-spiro[benzofuran-2,4′-piperidine]] here?
Its IC50 is ≤ 100 nM.

c1cc2c(cc1-c1cn[nH]c1)CC1(CCN(C3CCC3)CC1)O2 [Compound 27, 1′-Cyclobutyl-5-(1H-pyrazol-4-yl)-3H-spiro[benzofuran-2,4′-piperidine]] was tested. Which IC50 did it give?
Its IC50 is ≤ 100 nM.

With c1cn2cc(-c3ccc4c(c3)CC3(CCN5CCCCC5C3)O4)ccc2n1 (stereo not shown) [Compound 76, 5-(Imidazo[1,2-a]pyridin-6-yl)-1′,3′,4′,6′,7′,8′,9′,9a′-octahydro-3H-spiro[benzofuran-2,2′-quinolizine]] as the compound, how does the IC50 read?
The IC50 was ≤ 10 nM.

With Brc1ccc2c(c1)CC1(CCN3CCCCC3C1)O2 (single isomer, unassigned) [Compound 72, 5-Bromo-1′,3′,4′,6′,7′,8′,9′,9a′-octahydro-3H-spiro[benzofuran-2,2′-quinolizine]] as the compound, how does the IC50 read?
Its IC50 is ≤ 1000 nM.

How did the IC50 turn out when c1ccc2c(c1)CCN(Cc1ccc3c(c1)CC1(CCN4CCCCC4C1)O3)C2 (stereo not shown) [Compound 80, 5-((3,4-Dihydroisoquinolin-2(1H)-yl)methyl)-1′,3′,4′,6′,7′,8′,9′,9a′-octahydro-3H-spiro[benzofuran-2,2′-quinolizine]] was run?
Its IC50 is ≤ 10 nM.

With c1ccc2c(c1)ncn2-c1ccc2c(c1)CC1(CCCN(C3CCC3)CC1)O2 (stereo not shown) [Compound 50, 5′-(1H-Benzo[d]imidazol-1-yl)-1-cyclobutyl-3′H-spiro[azepane-4,2′-benzofuran]] as the compound, how does the IC50 read?
The IC50 was ≤ 10 nM.

For CN(C)Cc1ccc2c(c1)OC1(CCN(C3CCC3)CC1)C2 [Compound 43, 1-(1′-Cyclobutyl-3H-spiro[benzofuran-2,4′-piperidine]-6-yl)-N,N-dimethylmethanamine], which IC50 is on record?
The IC50 was ≤ 100 nM.

c1cc2c(cc1N1CCCCC1)CC1(CCN(C3CCC3)CC1)O2 [Compound 34, 1′-Cyclobutyl-5-(piperidin-1-yl)-3H-spiro[benzofuran-2,4′-piperidine]] was tested. Which IC50 did it give?
The IC50 was ≤ 100 nM.

Which IC50 does the source give for “5-(Morpholinomethyl)-2′,3′,4′,6′,7′,9′,10′,10a′-octahydro-1′H,3H-spiro[benzofuran-2,8′-pyrido[1,2-a]azepine] and 5-(morpholinomethyl)-2′,3′,4′,6′,7′,8′,10′,10a′-octahydro-1′H,3H-spiro[benzofuran-2,9′-pyrido[1,2-a]azepine] [87/87a]” here?
The IC50 was ≤ 100 nM.

Cn1cnc2cc(-c3ccc4c(c3)CC3(CCN(C5CCC5)CC3)O4)cnc21 [Compound 61, 1′-Cyclobutyl-5-(3-methyl-3H-imidazo[4,5-b]pyridin-6-yl)-3H-spiro[benzofuran-2,4′-piperidine]] was tested. Which IC50 did it give?
Its IC50 is ≤ 10 nM.

c1ccc2c(c1)CCN(Cc1ccc3c(c1)CC1(CCN4CCCC4C1)O3)C2 (stereo not shown) [Compound 93] was tested. Which IC50 did it give?
The IC50 was ≤ 10 nM.
